Patent publication US20230381170A1, “METHOD FOR TREATING ALS/FTD THROUGH DEGRADATION OF RNA REPEAT EXPANSION” (University of Florida Research Foundation, Incorporated, priority 2020, published 2023)
Read-outs that look alike come from different tables or passages of the source. One block for each compound: values may come before it.

Tests used:
[1] = molecular target: r(G4C2)8; experiment: Biolayer interferometry (BLI) binding; conditions: for Kd: BLI
Protocol: (§1) Biolayer Interferometry (BLI). BLI studies were performed similarly as previously described (12) using an Octet RED96. Briefly, 5′-biotinylated nucleic acids were folded by heating at 95° C. for 4 min in 10 mM sodium phosphate buffer, pH 7, followed by slowly cooling to room temperature. Then, to the folded RNA were added the following components: 1.386 mL 1×DPBS (21-031-CV, Corning), 180 μL freshly prepared 1% (w/v) BSA, 36 μL 1% (v/v) Tween-20, and 18 μL DMSO (1% final concentration) in a final volume of 1.8 mL. The final concentration of RNA was 0.5 μM. Separately, serial dilutions of the compound of interest were prepared in the same buffer.
(§2) The resulting curves were analyzed and processed using Octet Data Analysis software version 9.1 by subtracting the response of the sensors recorded upon incubation with solutions containing compound and no RNA (parallel reference). The data were then fitted assuming reversible binding using the entire time interval for association and dissociation using either 1:1 or the 2:1 heterogeneous binding curve fitting model. The reported Kd,n, kon,n and koff,n values represent the average of two independent experiments.

[2] = system: r(G4C2)8; experiment: In vitro Chem-CLIP and C-Chem-CLIP; type: binding
Protocol: In vitro Chemical Cross-linking and Isolation by Pull-Down (Chem-CLIP) and Competitive Chemical Cross-linking and Isolation by Pull-Down (C-Chem-CLIP): Approximately 10,000 counts of ^32P 5′-end labeled r(G4C2)8 was folded in 1×Folding Buffer at 95° C. for 1 min. After cooling to room temperature, the Chem-CLIP probe at the desired concentrations (5, 10, 100, 500, 1000, 5000, 10000 nM) was added, and the samples were incubated at 37° C. for 18 h. For C-Chem-CLIP studies, the parent compound (10, 100, 500, 1000, 5000, 10000 nM) was incubated with RNA for 1 h before addition of the Chem-CLIP probe (500 nM).
Cross-linked RNAs were clicked to biotin […] azide (10 μL of a 5 mM stock solution in DMSO) by incubating in a solution containing 25 mM HEPES (pH 7.1), 250 mM sodium ascorbate, 10 mM CuSO4, and 50 mM THPTA (tris-hydroxypropyltriazolylmethylamine) for 6 h at 37° C. A 300 μL of streptavidin-agarose beads (Sigma-Aldrich) was washed three times and then resuspended in 1×PBS. An aliquot (20 μL) of the slurry was added to each sample, which was incubated for 1 h at room temperature. The samples were centrifuged and the supernatant containing unbound RNA was transferred to an unused tube. The beads were then washed three times with 1×PBS supplemented with 0.10% (v/v) Tween-20 and centrifuged, with each wash supernatant being added to the tube containing unbound RNA. The amounts of radioactivity in the supernatant and associated with the beads were quantified with a Beckman Coulter LS6500 Liquid Scintillation Counter.

[3] = system: C9orf72 intron 1 harboring r(G4C2)exp; experiment: C9orf72 intron 1 RT-qPCR in patient-derived LCLs; type: cell-based, human; conditions: increasing concentrations
Protocol: Measuring Levels of C9orf72 and C9orf72 Variants by RT-qPCR. LCLs were seeded in 6-well plate (˜10^6 cells in 2 mL of growth medium) and incubated overnight at 37° C. Cells were then treated with various concentrations of compound for 24 h or with G4C2-ASO and Control-ASO (100 nM), delivered by transfection with Lipofectamine RNAiMax. RNA was extracted as described above and the expression of C9orf72 variants was determined by RT-qPCR. […] For compound treatment well, medium change was performed with fresh compound every 3-4 days. RNA was extracted as described above and the expression of C9orf72 variants was determined by RT-qPCR.

[4] = molecular target: r(G4C2)8 and hnRNP H1 complex; experiment: TR-FRET hnRNP H binding assay; type: biochemical; conditions: for IC50: inhibiting r(G4C2)8 and hnRNP H1 complex formation, 7 in the absence of Rnase L
Protocol: TR-FRET hnRNP H Binding Assay. TR-FRET assays were performed as previously described (12). The mixture was incubated for 15 min at room temperature and then hnRNP H1-His6 was added. After an additional 15 min incubation, streptavidin-XL665 (HTRF, Cisbio Bioassays) and anti-His6-Tb (HTRF, Cisbio Bioassays) were added to a final concentration of 40 nM and 0.44 ng/μL, respectively. After incubating for 1 h, TR-FRET was measured as previously described (12).

[5] = system: quadruplex form of r(G4C2) repeats, r(G2C2)10, d(G4C2)8, d(G2C2)10; experiment: In vitro Chem-CLIP, other nucleic acids; type: binding
[6] = system: C9orf72 mRNA variants; experiment: Cellular Chem-CLIP in patient-derived iPSCs; type: cell-based, human
Protocol: (§3) Cellular Chem-CLIP. For cellular Chem-CLIP studies, LCLs were grown in T-25 flasks while iPSCs were grown in 100 mm dishes. The cells were treated with Chem-CLIP probe (500 nM) overnight at 37° C. After removing the medium and washing with 1×PBS, fresh, ice-cold 1×PBS was added, and crosslinking was performed by UV irradiation at 365 nm for 10 min. The cells were collected, and total RNA was extracted with Qiagen micro RNEasy Kit per the manufacturer's protocol. Dynabeads MyOne Streptavidin C1 beads (Thermo Fisher Scientific 65001) were pre-loaded with biotin disulfide azide (Bioconjugate Technologies LLC dba Click Chemistry Tools) by incubating (10 μL of a 5 mM stock solution in DMSO in 500 μL PBS) with beads at room temperature for 30 min before magnetic capture. The beads were washed with High Salt Wash Buffer: (10 mM Tris-HCl pH 7.0, 1 mM EDTA, 4 M NaCl, 0.2% Tween-20) followed by two washes with Nanopure water. The click reaction between cross-linked RNAs and the Dynabeads displaying biotin disulfide azide was completed in a solution containing 25 mM HEPES, pH 7.1, 250 mM sodium ascorbate, 10 mM CuSO4, and 50 mM THPTA for 6 h at 37° C. […] The levels of C9orf72 mRNA in the purified, pull-down fraction were then measured by RT-qPCR as described above.

[7] = system: C9orf72 mRNA variants; experiment: Cellular Chem-CLIP in patient-derived LCLs; type: cell-based, human; conditions: lymphoblastoid cells
Protocol: as §3

[8] = molecular target: d(G4C2)8; experiment: Biolayer interferometry (BLI) binding; conditions: BLI
Protocol: as §1
as §2, with “Streptavidin sensors (SA, #18-5019, ForteBio) were equilibrated with buffer for 10 min at room temperature using 96-well black microplate (Greiner; Catalog #: 655209). The following time intervals were used during data acquisition (30° C. with shaking at 1000 rpm): baseline step, 180 s; loading of RNA, 900 s; washing, 180 s; association of compound, 1800 s; and dissociation of compound, 1800 s. The resulting” for “The resulting”

[9] = molecular target: r(G2C2)10; experiment: Biolayer interferometry (BLI) binding; conditions: BLI; read-out: Kd, 1
Protocol: as §1
as §2, with “Streptavidin sensors (SA, #18-5019, ForteBio) were equilibrated with buffer for 10 min at room temperature using 96-well black microplate (Greiner; Catalog #: 655209). The following time intervals were used during data acquisition (30° C. with shaking at 1000 rpm): baseline step, 180 s; loading of RNA, 900 s; washing, 180 s; association of compound, 1800 s; and dissociation of compound, 1800 s. The resulting” for “The resulting”

[10] = molecular target: r(G2C4)8; experiment: Biolayer interferometry (BLI) binding; conditions: BLI
Protocol: as §1
as §2, with “Streptavidin sensors (SA, #18-5019, ForteBio) were equilibrated with buffer for 10 min at room temperature using 96-well black microplate (Greiner; Catalog #: 655209). The following time intervals were used during data acquisition (30° C. with shaking at 1000 rpm): baseline step, 180 s; loading of RNA, 900 s; washing, 180 s; association of compound, 1800 s; and dissociation of compound, 1800 s. The resulting” for “The resulting”

SMILES: C#CCCC1(CCC(=O)NCCC)N=N1 [Compound 5]
RNA pulled down ([2]; all concentrations tested, up to 10 μM): < 25%

SMILES: CC(=O)N(CCOCCOCCOc1ccc2[nH]c3c(C)c4ccncc4c(C)c3c2c1)CCOCCOCCOc1ccc2[nH]c3c(C)c4ccncc4c(C)c3c2c1 [Compound 6]
C9orf72 intron 1 levels on co-treatment with constant concentration of 7 [3]: dose-dependently restored
IC50 [4]: 2.3 ± 0.3 µM
Kd ([1]; exponent printed in row below, read-out: Kd, 1): 0.2 µM
Kd ([1]; read-out: Kd, 2): 10.6 µM

SMILES: C#CCCC1(CCC(=O)N(CCOCCOCCOc2ccc3[nH]c4c(C)c5ccncc5c(C)c4c3c2)CCOCCOCCOc2ccc3[nH]c4c(C)c5ccncc5c(C)c4c3c2)N=N1 [Compound 4]
pull-down of other nucleic acids more than 5 [5]: did not statistically significantly pull-down
RNA pulled down ([2]; 500 nM compound): ~40%
enrichment of variants that do not contain the repeat expansion [6]: no enrichment
enrichment of variants with r(G4C2)exp ([6]; 500 nM probe): 2.3±0.2 fold
enrichment of variants with r(G4C2)exp ([7]; 500 nM probe): 1.9±0.4 fold
enrichment of variants that do not contain the repeat expansion [7]: no enrichment

Results, then the compound that gave them:

Kd ([1]; r(G4C2) repeats, read-out: Kd): 11 ± 0.14 µM
avidity weaker than 1 ([1]; Kd relative to 1): ~37 fold
SMILES: C#CCn1c2ccc(OC)cc2c2c(C)c3cnccc3c(C)c21 [Compound 1b]

Kd ([8]; read-out: Kd, 1): 1.3 µM
Kd ([8]; read-out: Kd, 2): 38 µM
Kd [9]: 6 µM
Kd ([10]; read-out: Kd, 1): 32 µM
Kd ([10]; read-out: Kd, 2): 120 µM
more potent than 1 ([4]; IC50 relative to 1): 10 fold
IC50 [4]: ~1.8 µM
Kd ([1]; read-out: Kd): 0.05 ± 0.008 µM
Kd ([1]; read-out: Kd, 2): 0.12 µM
SMILES: Cc1c2ccncc2c(C)c2c1[nH]c1ccc(OCCOCCOCCOCCOCCOCCOc3ccc4[nH]c5c(C)c6ccncc6c(C)c5c4c3)cc12 [Compound 2]
